Measurements as given in US20050042701A1, “Anti-petasin antibodies, methods for the production thereof and their use” (priority 1998, published 2005).
Like-named read-outs stand apart in the source and are kept apart here.

Assay: 1st phase clinical test: pharmacokinetics of petasin in serum after single oral administration of tablets containing butterbur extract (open crossover; enzyme immunoassay)
Assay type: in vivo, human (clinically healthy men)
Details: for concentration at 0.25 h: 0.25 h p.a.; for concentration at 0.5 h: 0.5 h p.a.; for concentration at 0.75 h: 0.75 h p.a.; for concentration at 1 h: 1 h p.a.; for concentration at 1.17 h: 1.17 h p.a. (1.167 in Table 3); for concentration at 1.5 h: 1.5 h p.a.; for concentration at 1.833 h: 1.833 h p.a.; for concentration at 2.167 h: 2.167 h p.a.; for concentration at 2.5 h: 2.5 h p.a.; for concentration at 3 h: 3 h p.a.; for concentration at 4 h: 4 h p.a.; for concentration at 5 h: 5 h p.a.; for concentration at 6 h: 6 h p.a.; for concentration at 8 h: 8 h p.a.; for concentration at 12 h: 12 h p.a.; for concentration at 24 h: 24 h p.a.; for Cmax / MRT / Tmax / half-life / AUC / AUC(0-t): single oral, mean ± SD; for AUC: read-out: AUC0-i; for AUC(0-t): read-out: AUC0-t(last)
Procedure: Petasin ovalbumin is adsorptively bound to polystyrene microtitration plates in a concentration of […] in 0.1 M carbonate buffer, pH=9.5, (100 μl/well) for 16 hours at 4° C. and thereupon sucked off. After washing it two times with 300 μl/well washing buffer (PBS, 0.1% Tween 20) it is blocked for 2 hours at room temperature with 150 μl/well blocking solution (0.6% gelatine, 0.02% […] in PBS) and subsequently washed three times with washing buffer.
50 μl of the serum sample to be tested or the respective standard (1:4 dilution in a sample buffer (PBS, 1% BSA, 0.1% Tween 20, 0.01% thiomersal) and 50 μL of an optimized anti-serum dilution in a sample buffer are simultaneously incubated with shaking for 1 hour at room temperature. Subsequently, the microtitration plate is washed three times with 300 μl/well of washing buffer and incubated for 30 min. at room temperature with 100 μl of anti-rabbit immunoglobulin peroxidase conjugate, diluted in sample buffer, and once more washed as above. Thereupon, it is incubated for 10 min. with 100 μl of a substrate solution ready for use (3.3′, 5.5′-tetramethyl benzidine) per well and the reaction is stopped by adding 100 μl/well of 0.5 M sulfuric acid. The evaluation is carried out at 450 nm in a microtitration plate reader.
In a 1st phase of the clinical test for determining the pharmacokinetic parameters of tablets containing butterbur extract was a single oral administrations of 2 or 4 tablets to 24 clinically healthy men at the age between 18 and 40 years.
The open, crossover test was chosen as method, single administration of each dose in a randomized order with an interval of at least 7 days between the administrations.
Model-independent pharmacokinetic parameters for petasin Statistical methods:
ANOVA, ANOVAlog, Wilcoxon-Mann-Whitney test, Wilcoxon-sign order test

[1] = male, human, serum, oral, 4 tablets, after administering 4 tablets, read-out: Petasin serum concentration Max.
[2] = male, human, serum, oral, 4 tablets, after administering 4 tablets, read-out: Petasin serum concentration Mean
[3] = male, human, serum, oral, 4 tablets, after administering 4 tablets, read-out: Petasin serum concentration Median
[4] = male, human, serum, oral, 4 tablets, after administering 4 tablets, read-out: Petasin serum concentration Min.

concentration at 0 h (male, human, serum, oral, 4 tablets, after administering 4 tablets, 0 h p.a., read-out: Petasin serum concentration Min.): 0 ng/mL | concentration at 0.25 h [1]: 14.9 ng/mL | concentration at 0.25 h [2]: 4.2 ng/mL | concentration at 0.25 h [3]: 3.2 ng/mL | concentration at 0.25 h [4]: 1 ng/mL | concentration at 0.5 h [1]: 96.2 ng/mL | concentration at 0.5 h [2]: 21.2 ng/mL | concentration at 0.5 h [3]: 13.7 ng/mL | concentration at 0.5 h [4]: 1.3 ng/mL | concentration at 0.75 h [1]: 91.8 ng/mL | concentration at 0.75 h [2]: 28.7 ng/mL | concentration at 0.75 h [3]: 23 ng/mL | concentration at 0.75 h [4]: 2.5 ng/mL | concentration at 1 h [1]: 100 ng/mL | concentration at 1 h [2]: 36.6 ng/mL | concentration at 1 h [3]: 38.1 ng/mL | concentration at 1 h [4]: 7.8 ng/mL | concentration at 1.17 h [1]: 100 ng/mL | concentration at 1.17 h [2]: 47.3 ng/mL | concentration at 1.17 h [3]: 43.6 ng/mL | concentration at 1.17 h [4]: 7.5 ng/mL | concentration at 1.5 h [1]: 90.7 ng/mL | concentration at 1.5 h [2]: 40.8 ng/mL | concentration at 1.5 h [3]: 32.4 ng/mL | concentration at 1.5 h [4]: 12.2 ng/mL | concentration at 1.833 h [1]: 100 ng/mL | concentration at 1.833 h [2]: 32 ng/mL | concentration at 1.833 h [3]: 26.8 ng/mL | concentration at 1.833 h [4]: 13.8 ng/mL | concentration at 2.167 h [1]: 76.1 ng/mL | concentration at 2.167 h [2]: 28.9 ng/mL | concentration at 2.167 h [3]: 27.5 ng/mL | concentration at 2.167 h [4]: 11.4 ng/mL | concentration at 2.5 h [1]: 40.9 ng/mL | concentration at 2.5 h [2]: 24.3 ng/mL | concentration at 2.5 h [3]: 26.1 ng/mL | concentration at 2.5 h [4]: 8.4 ng/mL | concentration at 3 h [1]: 49 ng/mL | concentration at 3 h [2]: 17.9 ng/mL | concentration at 3 h [3]: 14.6 ng/mL | concentration at 3 h [4]: 7.2 ng/mL | concentration at 4 h [1]: 20.8 ng/mL | concentration at 4 h [2]: 9.5 ng/mL | concentration at 4 h [3]: 8.1 ng/mL | concentration at 4 h [4]: 2.9 ng/mL | concentration at 5 h [1]: 81.4 ng/mL | concentration at 5 h [2]: 12.4 ng/mL | concentration at 5 h [3]: 7.3 ng/mL | concentration at 5 h [4]: 3.2 ng/mL | concentration at 6 h [1]: 14.7 ng/mL | concentration at 6 h [2]: 5.8 ng/mL | concentration at 6 h [3]: 5 ng/mL | concentration at 6 h [4]: 1.6 ng/mL | concentration at 8 h [1]: 15.7 ng/mL | concentration at 8 h [2]: 3.9 ng/mL | concentration at 8 h [3]: 3.1 ng/mL | concentration at 8 h [4]: 1.4 ng/mL | concentration at 12 h [1]: 5.1 ng/mL | concentration at 12 h [2]: 2.7 ng/mL | concentration at 12 h [3]: 2.5 ng/mL | concentration at 12 h [4]: 1.3 ng/mL | concentration at 24 h [1]: 2.3 ng/mL | concentration at 24 h [2]: 1.3 ng/mL | concentration at 24 h [3]: 1 ng/mL | concentration at 24 h [4]: 1 ng/mL | Cmax (male, human, serum, 2 tablets): 25.5 ± 14.8 ng/mL | MRT (male, human, serum, 2 tablets): 7.32 ± 3.74 h | Tmax (male, human, serum, 2 tablets): 1.62 ± 0.499 h | half-life (male, human, serum, 2 tablets): 7.16 ± 4.61 h | AUC (male, human, serum, 2 tablets): 79.7 ± 42.3 ng·h/mL | AUC(0-t) (male, human, serum, 2 tablets): 65.3 ± 35.6 ng·h/mL | Cmax (male, human, serum, 4 tablets): 58.1 ± 26.7 ng/mL | MRT (male, human, serum, 4 tablets): 6.74 ± 2.47 h | Tmax (male, human, serum, 4 tablets): 1.61 ± 0.926 h | half-life (male, human, serum, 4 tablets): 7.62 ± 3.34 h | AUC (male, human, serum, 4 tablets): 168 ± 73.4 ng·h/mL | AUC(0-t) (male, human, serum, 4 tablets): 151 ± 68.2 ng·h/mL
SMILES: C=C(C)C1CC2(C)C(=CC1=O)CCC(OC(=O)/C(C)=C\C)C2C (stereo not drawn) [petasin]
Resorption (single oral administration of 2 or 4 tablets): takes quickly place depending on the dose
